Tests used:
pigs = experiment: Acute lung injury in endotoxemic pigs; assay type: in vivo, pig
Method: All pigs were pre-treated at T=−18 h with Escherichia coli 0111:B4 LPS (20 μg/kg). Pigs in the RL group (n=4) received no further treatment. […] Lung wet-to-dry weight ratio was determined post-mortem. Lung lipid peroxidation was estimated fluorometrically by measuring thiobarbituric acid reactive products in the lipid fraction of lung parenchymal tissue harvested at T=300 min.

[1] = system: dopaminergic neurons in mouse striatum; experiment: 6-OHDA model of neuronal injury in mice (3H-mazindol binding in striatal homogenates); assay type: in vivo
Method: 6-OHDA in mice. Adult male CFW mice were anesthetized with ketamine and rumpun, and immobilized in a stereotaxic device. 6-OHDA, as the hydrobromide salt, was dissolved in normal saline with 1% ascorbate, and 50 μg was administered in lateral ventricle by means of a 10 μl Hamilton syringe. […] Animals were sacrificed 7 days later, and neuronal pathology was assessed by measuring ^3H-mazindol binding in striatal homogenates.

[2] = T = 300 min, C7 10 mg/kg bolus at T=60 min then 10 mg/kg-h after LPS
[3] = C7 4×66 mg/kg i.p., 6-OHDA 50 μg i.c.v.

[Cl][Mn]1[O]c2ccccc2C=NCCN=Cc2ccccc2[O]1 [Compound C7]
% Cdyn, dynamic pulmonary compliance (pigs; [2]): 78 ± 4%
MDA, lung malondialdehyde level (pigs; [2]): 180 ± 27 pmols/mg dry weight
PaO2, arterial oxygenation (pigs; [2]): 148 ± 22 mm Hg
Ppa, mean pulmonary arterial pressure (pigs; [2]): 25 ± 3 mm Hg
W/D, lung wet-to-dry weight ratio (pigs; [2]): 6.4 ± 0.9
protection against effects of endotoxin (pigs; administered 60 min after onset of endotoxemia): protects against many of the deleterious effects of endotoxin
mazindol binding, contralateral striatum [1, 3]: complete protection
mazindol binding, ipsilateral striatum [1, 3]: significant reduction
crossing of the blood brain barrier ([1]; concluded from effects of peripheral injections in in vivo models): crosses the blood brain barrier
protection from 6-OHDA-induced degeneration ([1]; mouse, in vivo): protects dopaminergic neurons
